Reference: patent US10450316B2, “Certain protein kinase inhibitor” (Chongqing Fochon Pharmaceutical Co., Ltd., priority 2015, dated 2019)

Tests used:
[1] = tested on: BE(2)-C cell; assay: Cell proliferation assay (MTS) in BE(2)-C cells; assay type: cell-based; conditions: Homo sapiens, inhibition of BE(2)-C cell proliferation, 48 h
Method in brief: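 Proliferation read-out was MTS absorbance at 490 nm, with 650 nm as reference, after a 2 h MTS incubation, giving IC50 values. Before reading, BE(2)-C cells plated at 3000 per well were exposed to nine compound concentrations from 10000 down to 1.5 nM for 48 h at 37 °C, 5% CO2.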

[2] = biological target: T1, CDK1/cyclin B (Homo sapiens, UniProt P06493); assay: CDK kinase inhibition assay (33P-ATP HotSpot filter binding); assay type: biochemical; conditions: substrate Histone H1, 10 μM ATP
T1 construct: purchased Invitrogen PR4768C
T1 sequence (P06493 whole entry): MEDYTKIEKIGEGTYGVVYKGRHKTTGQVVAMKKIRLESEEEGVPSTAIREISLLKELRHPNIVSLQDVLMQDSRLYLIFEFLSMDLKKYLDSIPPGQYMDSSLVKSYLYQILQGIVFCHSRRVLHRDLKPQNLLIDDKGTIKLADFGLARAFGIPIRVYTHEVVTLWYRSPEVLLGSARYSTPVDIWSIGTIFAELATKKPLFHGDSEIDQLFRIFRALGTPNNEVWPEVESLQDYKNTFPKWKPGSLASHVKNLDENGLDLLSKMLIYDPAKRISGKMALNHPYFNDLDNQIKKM
T1 sequence (P14635 whole entry partner): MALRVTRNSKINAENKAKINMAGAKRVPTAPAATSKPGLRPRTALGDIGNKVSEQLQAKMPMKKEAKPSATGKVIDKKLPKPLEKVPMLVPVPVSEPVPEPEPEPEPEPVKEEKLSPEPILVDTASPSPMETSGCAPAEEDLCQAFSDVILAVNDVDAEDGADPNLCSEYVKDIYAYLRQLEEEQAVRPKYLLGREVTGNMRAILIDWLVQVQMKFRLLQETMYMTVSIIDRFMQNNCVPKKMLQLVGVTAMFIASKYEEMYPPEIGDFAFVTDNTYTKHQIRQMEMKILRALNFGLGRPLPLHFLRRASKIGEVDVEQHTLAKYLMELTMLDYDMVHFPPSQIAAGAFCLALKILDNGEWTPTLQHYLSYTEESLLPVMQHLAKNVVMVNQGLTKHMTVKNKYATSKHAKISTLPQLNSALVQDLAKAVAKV
Description: (§1) Testing compounds were dissolved in 100% DMSO to specific concentration. Compounds were tested in 10-dose mode with 3-fold serial dilution starting at 100 μM. The serial dilution was conducted by epMotion 5070 in DMSO.
(§2) Each substrate was prepared in freshly prepared Reaction Buffer (20 mM Hepes (pH 7.5), 10 mM MgCl2, 1 mM EGTA, 0.02% Brij35, 0.02 mg/ml BSA, 0.1 mM Na3VO4, 2 mM DTT, 1% DMSO). Each kinase was delivered into the substrate solution and the solution was gently mixed. 0.05 μL Compounds were delivered into 5 μL kinase reaction mixture in a 384 well plate by Acoustic technology (Echo550; nanoliter range), and the mixture was incubated for 20 min at room temperature. 0.01 μL of 5 mM ATP with ^33P-ATP (PerkinElmer, Cat# NEG602H001MC, Specific activity […]) was delivered into the reaction mixture to initiate the reaction, and the final concentration of ATP in the mixture was 10 μM. The resulted solutions were incubated for 2 hours at room temperature, the radioactivity incorporated is determined by the proprietary “HotSpot” platform, which is a miniaturized filter-binding method (using this paper as reference: Anastassiadis et al, 2011 Nature Biotech) IC50 value of each compound was generated using GraphPad Prism software.
(§3) Select compounds prepared as described above were assayed according to the biological procedures described herein.

[3] = biological target: T2, CDK2/cyclin A (Homo sapiens, UniProt P24941); assay: as above; assay type: biochemical; conditions: substrate Histone H1, 10 μM ATP
T2 construct: purchased Invitrogen PR4448B
Description: as §1, §2, §3

[4] = biological target: T3, CDK4/cyclin D1 (Homo sapiens, UniProt P11802); assay: as above; assay type: biochemical; conditions: substrate RB Protein, 10 μM ATP
T3 construct: purchased Invitrogen PV4436
T3 sequence (P11802 whole entry): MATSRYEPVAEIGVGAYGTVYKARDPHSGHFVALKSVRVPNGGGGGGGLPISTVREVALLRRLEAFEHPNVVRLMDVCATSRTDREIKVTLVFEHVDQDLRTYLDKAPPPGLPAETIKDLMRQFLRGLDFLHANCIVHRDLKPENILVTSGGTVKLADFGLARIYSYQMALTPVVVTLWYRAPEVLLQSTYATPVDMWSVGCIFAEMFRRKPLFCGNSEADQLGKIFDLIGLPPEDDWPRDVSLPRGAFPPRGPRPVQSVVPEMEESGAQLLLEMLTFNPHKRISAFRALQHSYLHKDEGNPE
T3 sequence (P24385 whole entry partner): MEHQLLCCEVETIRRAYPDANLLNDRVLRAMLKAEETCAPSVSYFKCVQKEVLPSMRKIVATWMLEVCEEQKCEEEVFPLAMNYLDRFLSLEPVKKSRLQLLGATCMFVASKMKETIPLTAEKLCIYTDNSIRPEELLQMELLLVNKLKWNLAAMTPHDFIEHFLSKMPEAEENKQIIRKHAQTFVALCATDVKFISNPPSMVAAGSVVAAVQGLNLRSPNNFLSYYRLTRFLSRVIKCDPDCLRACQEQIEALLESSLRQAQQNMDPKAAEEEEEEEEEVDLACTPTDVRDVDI
Description: as §1, §2, §3

[5] = biological target: T4, CDK6/cyclin D1 (Homo sapiens, UniProt Q00534); assay: as above; assay type: biochemical; conditions: substrate RB Protein, 10 μM ATP
T4 construct: purchased Invitrogen PR8422B
T4 sequence (Q00534 whole entry): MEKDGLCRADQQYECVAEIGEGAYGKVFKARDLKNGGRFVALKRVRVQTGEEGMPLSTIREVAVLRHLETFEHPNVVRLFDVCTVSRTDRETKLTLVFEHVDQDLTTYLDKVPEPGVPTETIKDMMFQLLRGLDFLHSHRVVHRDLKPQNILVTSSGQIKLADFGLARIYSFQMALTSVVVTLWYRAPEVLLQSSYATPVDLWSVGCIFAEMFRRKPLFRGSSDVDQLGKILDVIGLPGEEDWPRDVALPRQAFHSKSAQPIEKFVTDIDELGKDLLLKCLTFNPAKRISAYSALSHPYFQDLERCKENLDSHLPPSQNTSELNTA
T4 sequence (P24385 whole entry partner): as the sequence (P24385 whole entry partner) above
Description: as §1, §2, §3

[6] = tested on: COLO205 xenograft tumors; assay: Tumor growth inhibition in COLO205 xenograft tumors; assay type: in vivo; conditions: 30 mg/kg; for Average Tumor Volume D0: D0, in mm³; for Average Tumor Volume D21: D21, in mm³
Description: COLO205 cells were cultured with RPMI-1640 medium containing 10% fetal bovine serum (FBS) at 37° C. in 5% CO2 incubator. Logarithmic growth phase cells were collected. COLO205 cells (5×10^6 in 200 μL PBS) were implanted subcutaneously into the left flank region, and tumor growth was monitored. Tumor volume (V) was estimated from the length (l) and width (w) of the tumor using the following formula: V=1/2×l×w^2. Treatment started when average tumor size was 100-150 mm^3. Measuring subcutaneous tumor volume 2 to 3 times every week. Drug efficacy was assessed as Tumor Growth Inhibition (TGI) and Tumor increment rate T/C (%). TGI was defined as (1−T/C)×100%, wherein T/C (%) presented the ratio of the change in mean tumor volume of the treated group and of the control group.

CN1CCN(c2ccc(Nc3ncc(F)c(-c4cc(F)c5nc6n(c5c4)[C@H](C(F)F)CC6)n3)nc2)CC1 [Example 39, (S)-4-(1-(difluoromethyl)-5-fluoro-2,3-dihydro-1H-benzo[d]pyrrolo[1,2-a]imidazol-7-yl)-5-fluoro-N-(5-(4-methylpiperazin-1-yl)pyridin-2-yl)pyrimidin-2-amine]
IC50 [1]: > 100 nM | IC50 [2]: 50.5 nM | IC50 [3]: 19.2 nM | IC50 [4]: < 5 nM | IC50 [5]: < 5 nM

CN1CCN(Cc2ccc(Nc3ncc(F)c(-c4cc(F)c5nc6n(c5c4)[C@H](C(F)F)CC6)n3)nc2)CC1 [Example 11, (S)-4-(1-(difluoromethyl)-5-fluoro-2,3-dihydro-1H-benzo[d]pyrrolo[1,2-a]imidazol-7-yl)-5-fluoro-N-(5-((4-methylpiperazin-1-yl)methyl)pyridin-2-yl)pyrimidin-2-amine]
IC50 [1]: 10 to 100 nM | Average Tumor Volume D0 [6]: 110 ± 3.2 | T/C % D21 [6]: 28% | TGI % D21 [6]: 72% | Average Tumor Volume D21 [6]: 570 ± 57

CCN1CCN(Cc2ccc(Nc3ncc(F)c(-c4cc(F)c5nc6n(c5c4)[C@H](C(F)F)CC6)n3)nc2)CC1 [Example 12, (S)-4-(1-(difluoromethyl)-5-fluoro-2,3-dihydro-1H-benzo[d]pyrrolo[1,2-a]imidazol-7-yl)-N-(5-((4-ethylpiperazin-1-yl)methyl)pyridin-2-yl)-5-fluoropyrimidin-2-amine]
IC50 [1]: 10 to 100 nM | IC50 [2]: 403 nM | IC50 [3]: 50.5 nM | IC50 [4]: < 5 nM | IC50 [5]: < 5 nM | Average Tumor Volume D0 [6]: 113 ± 3.4 | T/C % D21 [6]: 29% | TGI % D21 [6]: 71% | Average Tumor Volume D21 [6]: 584 ± 86

CCN1CC2CN(Cc3ccc(Nc4ncc(F)c(-c5cc(F)c6nc7n(c6c5)[C@H](C(F)F)CC7)n4)nc3)CC2C1 (stereo partly drawn) [Example 50, 4-((S)-1-(difluoromethyl)-5-fluoro-2,3-dihydro-1H-benzo[d]pyrrolo[1,2-a]imidazol-7-yl)-N-(5-((5-ethylhexahydropyrrolo[3,4-c]pyrrol-2(1H)-yl)methyl)pyridin-2-yl)-5-fluoropyrimidin-2-amine]
IC50 [1]: 10 to 100 nM

CN1CCN(Cc2ccc(Nc3ncc(F)c(-c4cc(F)c5nc6n(c5c4)C4(CC6)CC4)n3)nc2)CC1 [Example 14, 5-fluoro-4-(5-fluoro-2,3-dihydrospiro[benzo[d]pyrrolo[1,2-a]imidazole-1,1′-cyclopropan]-7-yl)-N-(5-((4-methylpiperazin-1-yl)methyl)pyridin-2-yl)pyrimidin-2-amine]
IC50 [1]: > 100 nM

CCN1CC2(CCN(Cc3ccc(Nc4ncc(F)c(-c5cc(F)c6nc7n(c6c5)C(C)(C)CC7)n4)nc3)CC2)C1 [Example 116, N-(5-((2-ethyl-2,7-diazaspiro[3.5]nonan-7-yl)methyl)pyridin-2-yl)-5-fluoro-4-(5-fluoro-1,1-dimethyl-2,3-dihydro-1H-benzo[d]pyrrolo[1,2-a]imidazol-7-yl)pyrimidin-2-amine]
IC50 [1]: 10 to 100 nM

CCN1CC2(C1)CN(Cc1ccc(Nc3ncc(F)c(-c4cc(F)c5nc6n(c5c4)C(C)(C)CC6)n3)nc1)C2 [Example 119, N-(5-((6-ethyl-2,6-diazaspiro[3.3]heptan-2-yl)methyl)pyridin-2-yl)-5-fluoro-4-(5-fluoro-1,1-dimethyl-2,3-dihydro-1H-benzo[d]pyrrolo[1,2-a]imidazol-7-yl)pyrimidin-2-amine]
IC50 [1]: 10 to 100 nM

COC[C@H]1CCc2nc3c(F)cc(-c4nc(Nc5ccc(CN6CCN(C)CC6)cn5)ncc4F)cc3n21 [Example 159, (R)-5-fluoro-4-(5-fluoro-1-(methoxymethyl)-2,3-dihydro-1H-benzo[d]pyrrolo[1,2-a]imidazol-7-yl)-N-(5-((4-methylpiperazin-1-yl)methyl)pyridin-2-yl)pyrimidin-2-amine]
IC50 [1]: > 1000 nM

Fc1cnc(Nc2ccc(CN3CCNCC3)cn2)nc1-c1cc(F)c2nc3n(c2c1)[C@@H](C(F)F)CC3 [Example 152, (R)-4-(1-(difluoromethyl)-5-fluoro-2,3-dihydro-1H-benzo[d]pyrrolo[1,2-a]imidazol-7-yl)-5-fluoro-N-(5-(piperazin-1-ylmethyl)pyridin-2-yl)pyrimidin-2-amine]
IC50 [1]: > 1000 nM

CCN1CC2CCC(C1)N2Cc1ccc(Nc2cc(-c3cnc4nc5n(c4c3)C(C)(C)CC5)c(F)cn2)nc1 [Example 169, 4-(6,6-dimethyl-7,8-dihydro-6H-pyrrolo[1′,2′:1,2]imidazo[4,5-b]pyridin-3-yl)-N-(5-((3-ethyl-3,8-diazabicyclo[3.2.1]octan-8-yl)methyl)pyridin-2-yl)-5-fluoropyridin-2-amine]
IC50 [1]: > 100 nM

CN1CCC2(CC1)CN(Cc1ccc(Nc3ncc(F)c(-c4cc(F)c5nc6n(c5c4)[C@H](C(F)(F)F)CC6)n3)nc1)C2 [Example 62, (S)-5-fluoro-4-(5-fluoro-1-(trifluoromethyl)-2,3-dihydro-1H-benzo[d]pyrrolo[1,2-a]imidazol-7-yl)-N-(5-((7-methyl-2,7-diazaspiro[3.5]nonan-2-yl)methyl)pyridin-2-yl)pyrimidin-2-amine]
IC50 [1]: 10 to 100 nM

CCN1CC2(C1)CN(Cc1ccc(Nc3ncc(F)c(-c4cc(F)c5nc6n(c5c4)[C@H](C(F)(F)F)CC6)n3)nc1)C2 [Example 69, (S)-N-(5-((6-ethyl-2,6-diazaspiro[3.3]heptan-2-yl)methyl)pyridin-2-yl)-5-fluoro-4-(5-fluoro-1-(trifluoromethyl)-2,3-dihydro-1H-benzo[d]pyrrolo[1,2-a]imidazol-7-yl)pyrimidin-2-amine]
IC50 [1]: 10 to 100 nM

Fc1cnc(Nc2ccc(CN3CC4CCC(C3)N4)cn2)nc1-c1cc(F)c2nc3n(c2c1)[C@H](C(F)F)CC3 [Example 57, N-(5-((3,8-diazabicyclo[3.2.1]octan-3-yl)methyl)pyridin-2-yl)-4-((S)-1-(difluoromethyl)-5-fluoro-2,3-dihydro-1H-benzo[d]pyrrolo[1,2-a]imidazol-7-yl)-5-fluoropyrimidin-2-amine]
IC50 [1]: > 100 nM

CCN1CC2CCC(C1)N2Cc1ccc(Nc2ncc(F)c(-c3cc(F)c4nc5n(c4c3)C(C)(C)CC5)n2)nc1 [Example 128, N-(5-((3-ethyl-3,8-diazabicyclo[3.2.1]octan-8-yl)methyl)pyridin-2-yl)-5-fluoro-4-(5-fluoro-1,1-dimethyl-2,3-dihydro-1H-benzo[d]pyrrolo[1,2-a]imidazol-7-yl)pyrimidin-2-amine]
IC50 [1]: < 10 nM

CCN1CCC2(CC1)CCN(Cc1ccc(Nc3ncc(F)c(-c4cc(F)c5nc6n(c5c4)C(C)(C)CC6)n3)nc1)CC2 [Example 122, N-(5-((9-ethyl-3,9-diazaspiro[5.5]undecan-3-yl)methyl)pyridin-2-yl)-5-fluoro-4-(5-fluoro-1,1-dimethyl-2,3-dihydro-1H-benzo[d]pyrrolo[1,2-a]imidazol-7-yl)pyrimidin-2-amine]
IC50 [1]: 10 to 100 nM

CN1CCC2(CC1)CCN(Cc1ccc(Nc3ncc(F)c(-c4cc(F)c5nc6n(c5c4)[C@H](CF)CC6)n3)nc1)CC2 [Example 30, (S)-5-fluoro-4-(5-fluoro-1-(fluoromethyl)-2,3-dihydro-1H-benzo[d]pyrrolo[1,2-a]imidazol-7-yl)-N-(5-((9-methyl-3,9-diazaspiro[5.5]undecan-3-yl)methyl)pyridin-2-yl)pyrimidin-2-amine]
IC50 [1]: > 100 nM

CC1(C)CCc2nc3c(F)cc(-c4nc(Nc5ccc(CN6CC7CCC(C6)N7)cn5)ncc4F)cc3n21 [Example 129, N-(5-((3,8-diazabicyclo[3.2.1]octan-3-yl)methyl)pyridin-2-yl)-5-fluoro-4-(5-fluoro-1,1-dimethyl-2,3-dihydro-1H-benzo[d]pyrrolo[1,2-a]imidazol-7-yl)pyrimidin-2-amine]
IC50 [1]: 10 to 100 nM

CN1CCN(Cc2ccc(Nc3ncc(F)c(-c4cc(F)c5nc6n(c5c4)[C@H](CF)CC6)n3)nc2)CC1 [Example 5, (S)-5-fluoro-4-(5-fluoro-1-(fluoromethyl)-2,3-dihydro-1H-benzo[d]pyrrolo[1,2-a]imidazol-7-yl)-N-(5-((4-methylpiperazin-1-yl)methyl)pyridin-2-yl)pyrimidin-2-amine]
IC50 [1]: > 100 nM
